Activity calls are given as the source filed them. The rule behind the calls is not given here.
What was measured:
[1] = system: Spodoptera littoralis; assay: Insecticidal activity against Spodoptera littorali first-instar stages grown on compound pre-treated cotton leaves assessed as insect mortality at 0.5 mg/L of active ingredient measured 72 hr post compound dose; type: functional
[2] = system: Bemisia tabaci; assay: Insecticidal activity against adult Bemisia tabaci biotype B (sweet potato whitefly) reared on compound pre-treated cotton seedlings assessed as insect mortality at 20 mg/L of active ingredient measured after 7 days post dose; type: functional, organism-based
[3] = system: Spodoptera littoralis; assay: Insecticidal activity against Spodoptera littorali first-instar stages grown on compound pre-treated cotton leaves assessed as insect mortality at 16 mg/L of active ingredient measured after 7 days post dose; type: functional
[4] = system: Spodoptera littoralis; assay: Insecticidal activity against Spodoptera littorali first-instar stages grown on compound pre-treated cotton leaves assessed as insect mortality at 16 mg/L of active ingredient measured up to 4 days post dose; type: functional
[5] = system: Bemisia tabaci; assay: Insecticidal activity against thiamethoxam-resistant adult Bemisia tabaci ActRQ-G95 reared on compound-pre-treated cotton seedlings assessed as insect mortality; type: functional
[6] = target: AChE2 (Bemisia tabaci) (UniProt B3SST5); assay: Inhibition of AChE in Bemisia tabaci (sweet potato whitefly) homogenates assessed as reduction in acetylthiocholine iodide hydrolysis by Ellman method based colorimetry
[7] = system: Myzus persicae; assay: Insecticidal activity against Myzus persicae Fluf-RG-15 (green peach aphid) first nymphal stages exposed to 0.1 mg of active ingredient per liter of compound for 15 generations grown on compound pre-treated mustard leaves assessed as insect mortality measured 72 hr post compound dose; type: functional
[8] = system: Spodoptera littoralis; assay: Insecticidal activity against Spodoptera littorali first-instar stages grown on compound pre-treated cotton leaves assessed as insect mortality at 16 mg/L of active ingredient measured after 14 days post dose; type: functional
[9] = system: Spodoptera littoralis; assay: Insecticidal activity against Spodoptera littorali first-instar stages grown on compound pre-treated cotton leaves assessed as insect mortality at 6.32 mg/L of active ingredient measured 72 hr post compound dose; type: functional
[10] = system: Bemisia tabaci; assay: Insecticidal activity against adult Bemisia tabaci biotype B (sweet potato whitefly) reared on compound-pretreated cotton seedlings assessed as insect mortality at 0.5 mg/L of active ingredient measured 48 hr post compound dose; type: functional
[11] = system: Bemisia tabaci; assay: Inhibition of oviposition of Bemisia tabaci biotype B (sweet potato whitefly) reared on cotton seedlings at 10 mg/L of active ingredient by oviposition nonchoice assay; type: functional, organism-based
[12] = system: Bemisia tabaci; assay: Insecticidal activity against adult Bemisia tabaci biotype B (sweet potato whitefly) reared on compound pre-treated cotton seedlings assessed as insect mortality under out door conditions at 30 mg/L of active ingredient measured after 1 days post dose; type: functional
[13] = system: Bemisia tabaci; assay: In-vivo inhibition of Bemisia tabaci (sweet potato whitefly) AChE isolated from white fly feeding on compound-pre-treated cotton leaves for 48 hr assessed as reduction in acetylthiocholine iodide hydrolysis by Ellman method based colorimetry; type: functional, organism-based
[14] = system: Bemisia tabaci; assay: Insecticidal activity against adult Bemisia tabaci biotype B (sweet potato whitefly) reared on cotton seedlings assessed as induction of insect mortality; type: functional
[15] = system: Bemisia tabaci; assay: Insecticidal activity against adult Bemisia tabaci biotype B (sweet potato whitefly) exposed to 0.1 mg of active ingredient per liter of compound for 30 generations reared on compound pre-treated cotton seedlings assessed as insect mortality at 0.8 mg/L of active ingredient; type: functional
[16] = system: Bemisia tabaci; assay: Insecticidal activity against adult Bemisia tabaci biotype B (sweet potato whitefly) reared on compound pre-treated cotton seedlings assessed as insect mortality under out door conditions at 30 mg/L of active ingredient measured after 2 days post dose; type: functional
[17] = system: Spodoptera littoralis; assay: Insecticidal activity against Spodoptera littorali first-instar stages grown on compound pre-treated cotton leaves assessed as insect mortality under out door conditions at 16 mg/L of active ingredient measured after 2 days post dose; type: functional
[18] = system: Spodoptera littoralis; assay: Insecticidal activity against Spodoptera littorali first-instar stages grown on compound pre-treated cotton leaves assessed as insect mortality measured 72 hr post compound dose; type: functional
[19] = system: Bemisia tabaci; assay: Insecticidal activity against adult Bemisia tabaci biotype B (sweet potato whitefly) reared on cotton seedlings assessed as insect mortality at 0.8 mg/L of active ingredient; type: functional
[20] = system: Myzus persicae; assay: Insecticidal activity against Myzus persicae (green peach aphid) first nymphal stages grown on compound pre-treated mustard leaves assessed as insect mortality measured 72 hr post compound dose; type: functional
[21] = system: Bemisia tabaci; assay: Insecticidal activity against adult Bemisia tabaci biotype B (sweet potato whitefly) reared on compound pre-treated cotton seedlings assessed as insect mortality at 20 mg/L of active ingredient measured up to 4 days post dose; type: functional
[22] = system: Myzus persicae; assay: Insecticidal activity against Myzus persicae (green peach aphid) first nymphal stages grown on compound pre-treated mustard leaves assessed as insect mortality at 1 mg/L of active ingredient measured 72 hr post compound dose; type: functional
[23] = system: Bemisia tabaci; assay: Inhibition of oviposition of Bemisia tabaci biotype B (sweet potato whitefly) reared on cotton seedlings at 10 mg/L of active ingredient by oviposition choice assay; type: functional, organism-based
[24] = system: Spodoptera frugiperda; assay: Insecticidal activity against Spodoptera frugiperda (fall armyworm) fed with compound pre-treated sweet corn foliage 3 hr after compound application assessed as induction of mortality on day 0 post compound application; type: functional
[25] = system: Spodoptera frugiperda; assay: Insecticidal activity against Spodoptera frugiperda (fall armyworm) fed with compound pre-treated sweet corn foliage 3 hr after compound application assessed as induction of mortality on day 1 and 2 post compound application; type: functional

Chain of AChE2 (Bemisia tabaci) (B3SST5 as listed by the source): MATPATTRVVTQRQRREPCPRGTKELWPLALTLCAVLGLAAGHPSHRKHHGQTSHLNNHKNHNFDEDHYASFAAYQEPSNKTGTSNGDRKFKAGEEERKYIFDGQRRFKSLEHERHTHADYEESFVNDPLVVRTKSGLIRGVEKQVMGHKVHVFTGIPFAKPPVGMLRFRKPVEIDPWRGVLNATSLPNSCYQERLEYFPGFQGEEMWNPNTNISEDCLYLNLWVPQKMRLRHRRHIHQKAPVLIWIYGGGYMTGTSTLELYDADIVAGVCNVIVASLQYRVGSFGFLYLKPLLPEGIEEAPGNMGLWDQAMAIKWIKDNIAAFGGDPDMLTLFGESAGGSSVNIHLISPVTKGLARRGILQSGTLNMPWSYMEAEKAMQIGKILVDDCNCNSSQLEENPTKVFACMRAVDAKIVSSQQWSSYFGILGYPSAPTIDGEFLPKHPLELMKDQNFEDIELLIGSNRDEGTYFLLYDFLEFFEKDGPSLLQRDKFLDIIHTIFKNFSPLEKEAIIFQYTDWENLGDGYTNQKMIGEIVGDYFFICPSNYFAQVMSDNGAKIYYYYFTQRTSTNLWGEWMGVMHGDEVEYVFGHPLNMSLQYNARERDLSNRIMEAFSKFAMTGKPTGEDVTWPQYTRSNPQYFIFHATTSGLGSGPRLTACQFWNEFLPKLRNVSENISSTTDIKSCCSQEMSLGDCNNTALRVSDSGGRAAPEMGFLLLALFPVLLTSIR

## CC(F)c1ncnc(NCCc2ccc(OC(F)(F)F)cc2)c1Cl (configuration not stated) [FLUFENERIM]
[1]
  mortality: 90%
[2]
  Activity: inactive
[3]
  mortality: 55%
[4]
  mortality: 80%
[5]
  LC50: 0.41 mgAi/L
  LC90: 2.4 mgAi/L
[6]
  inhibition: Active
[7]
  LC50: 0.31 mgAi/L
  LC90: 1.22 mgAi/L
[8]
  mortality: 28%
[9]
  mortality: 90%
[10]
  mortality: 94%
[11]
  inhibition: Active
[12]
  mortality: 90%
[13]
  inhibition: Active
[14]
  LC50: 0.35 mgAi/L
  LC90: 1.24 mgAi/L
[15]
  LC50: 2.38 mgAi/L
  LC90: 6.32 mgAi/L
[16]
  mortality: 30%
[17]
  mortality: >80%
[18]
  LC50: 2.38 mgAi/L
[19]
  mortality: 97%
[20]
  LC50: 0.39 mgAi/L
  LC90: 1.12 mgAi/L
[21]
  mortality: 80%
[22]
  mortality: 90%
[23]
  inhibition: Active

## CNC(=O)ON=C(C)SC [METHOMYL]
[1]
  mortality: 6%
[24]
  mortality: 50%
[10]
  mortality: 10%
[25]
  mortality: 5%

— ChEMBL document CHEMBL3045181, “Flufenerim, a novel insecticide acting on diverse insect pests: biological mode of action and biochemical aspects” (2011)
